Results taken from US20220369639A1, “Fungicide Mixtures” (LANXESS Deutschland GmbH, priority 2019, published 2022).
Where two headings read alike, the source gives them in different places.

What was measured:
Format in all cases: cell-based
[1] = test system: Aspergillus niger; experiment: Minimum Inhibitory Concentration (MIC) on nutrient agar petri dishes
Text: (§1) The term synergism is used when the action of a combination of antimicrobial substances is being evaluated.
(§2) The synergism found for the mixtures according to the invention can be determined via the following mathematical mathematical formula (cf. F. C. Kull, P. C. Elisman, H. D.
(§3) Qa=amount of component A in the active substance mixture which achieves the desired effect, i. e. no microbial growth,
(§4) QA=amount of component A which, when used alone, suppresses the growth of the microorganisms,
(§5) Qb=amount of component B in the active substance mixture which suppresses the growth of the microorganisms,
(§6) QB=amount of component B which, when used alone, suppresses the growth of the microorganisms
(§7) If the sum of the ratios for a mixture Qa/QA+Qb/QB=1, additivity is indicated; if it is <1, synergism has occurred; a value of >1 is indicative of antagonism.
(§8) To determine the antimicrobial efficacy and synergy of active ingredients mixtures, the Minimum Inhibitory Concentration (MIC) of the active substances and their respective combinations were determined. The Minimum Inhibitory
(§9) Concentration of a given antimicrobial compound or mixture is the lowest concentration expressed in […] (ppm) that under defined in vitro conditions inhibits the growth of a given micro-organism (for example bacteria, mould fungi, yeasts). The growth of the microorganisms is observed on petri dishes containing a defined nutrient agar. In the case of fungi, typical strains according to this test design for example would be species like those as indicated in tables 1a) and 1b)

[2] = test system: Fusarium solani; experiment: as above
Text: as §1, §2, §3, §4, §5, §6, §7, §8, §9

[3] = test system: Fungi Mix composed of the standard ASTM G 21-09 species; experiment: Gypsum board mould resistance, ASTM G 21-09 (core protection); settings: for Observed growth rating, Fungi Mix: facing papers not treated, 4 weeks at 28-30° C.
Text: The fungicide mixtures as of the present invention and of the comparison example to be tested were made as follows: The respective actives were mixed in their respective weight ratio (see table 2) together with water and 1 wt. % dispersant Tristyrylphenol ethoxylate (in form of Soprophor® S 25), as thickener 0.1 wt. % of Xanthan gum and 1 wt. % wetting agent non-ionic EO/PO-Copolymer (in form of Pluronic 127 F), where the wt. % are based on the entire mixture and were homogenized with a high speed mixer (IKA Ultra Turrax Labor Dispergator) to give an aqueous suspension having a viscosity measured in accordance with CIPAC 192 method of 500-600 mPas and a particle size of the biocides of smaller than 30 μm measured in accordance with the CIPAC 187 method.
For examination of the antifungal performance of the inventive mixtures the various mixtures prepared above were tested. The testing directly made in gypsum boards provides realistic and practically relevant data for evaluation. To achieve such data, gypsum boards were produced in the laboratory. For this purpose, a typical slurry recipe as given below for board production is used.
The gypsum slurry is formed by mixing the dry components and the wet components together. The slurry is then mixed to achieve a homogeneous consistency. The fungicide mixtures as prepared above are then incorporated into the wet gypsum slurry respectively (total amount of actives in ppm see table 2) by adding and thoroughly mixing. For sandwiching the gypsum core, untreated cardboard (without fungicide) with a grammage of appr. 180 g/m^2 was used and after assembly of the plate the hand sheets are dried.
The mould resistance of the gypsum board samples was evaluated according to the test method ASTM G 21-09. Following to this method, the manufactured gypsum boards as described above and after having been cut to an adequate size are placed on an agarplate and superficially are spoiled with fungal spores for a determined period of time of at the most 4 weeks. The respective total amount of actives in ppm based in gypsum/plaster ([…]) can be seen in the table.
Spore suspensions are produced for each fungi (spore concentrations of approximately 10^6/ml). Organisms which are included in ASTM G 21 comprise Aspergillus niger (ATCC 9642), Aureobasidium pullulans (ATCC 15233) Chaetomium globosum (ATCC 6205), Gliocladium virens (ATCC 6459) and Penicillium pinophilium (ATCC 11797) (as pure culture but also as mixed inoculum), however any other fungi species known to be able to grow in gypsum boards may be used in addition or instead. Mineral agar (according to ASTM G21 of 2009) was used as growth media in the agar plates. Before inoculation the gypsum board hand sheets are cut into pieces of appr. 5×5 cm.
For every concentration level, 3 test pieces are used in the test. Each sample is placed in a separate petri dish and then inoculated with the fungi mixture. The samples are then incubated at 28-30° C. for 28 days. Pre-reading of the samples may be performed at approximately 10 days after inoculation. The activity of the treatments may be assessed visually, using a rating system of 0-4 for growth inhibition of fungal growth.
Results: The results as recorded after 4 weeks testing at 28-30° C. according to the requirements of test method ASTM G 21 are summarized in table 2.

| Compound | MIC [1] | MIC ([1]; read-out: MIC) | MIC [2] | MIC ([2]; read-out: MIC) | Observed growth rating, Fungi Mix ([3]; 25 ppm on dry stucco in gypsum core) | Observed growth rating, Fungi Mix ([3]; 50 ppm on dry stucco in gypsum core) | Observed growth rating, Fungi Mix ([3]; 100 ppm on dry stucco in gypsum core) | Observed growth rating, Fungi Mix ([3]; 200 ppm on dry stucco in gypsum core) | Observed growth rating, Fungi Mix ([3]; 300 ppm on dry stucco in gypsum core) | Control of fungi growth on gypsum board (interpretation of Table 2) ([3]; tested concentration range 25-300 ppm, comparison with TBZ/PYM mixtures) |
| --- | --- | --- | --- | --- | --- | --- | --- | --- | --- | --- |
| Cc1cc(C)nc(Nc2ccccc2)n1 [PYM, pyrimethanil] | 500 ppm | 250 µg/mL | 1501 ppm | 1000 µg/mL |  |  |  |  |  |  |
| c1ccc2[nH]c(-c3cscn3)nc2c1 [TBZ, thiabendazole] |  |  |  | 250 µg/mL | 4 (Heavy growth (60% to complete coverage)) | 4 (Heavy growth (60% to complete coverage)) | 4 (Heavy growth (60% to complete coverage)) | 4 (Heavy growth (60% to complete coverage)) | 3 (Medium growth (30 to 60%)) | not good enough |
